Values joined by “and” are separate entries in the source; they are usually repeats but may differ in a detail not shown here. Equal entries are not always repeated.
What was measured:
[1] = molecular target: Lanosterol 14-alpha-demethylase (Trypanosoma brucei brucei (strain 927/4 GUTat10.1), UniProt Q385E8); experiment: Inhibition Assay; conditions: pH 6
[2] = molecular target: Sterol 14-alpha demethylase (Trypanosoma cruzi (strain CL Brener), UniProt Q7Z1V1); experiment: Inhibition Assay; conditions: pH 6
Sterol 14-alpha demethylase, sequence (Q7Z1V1 whole entry): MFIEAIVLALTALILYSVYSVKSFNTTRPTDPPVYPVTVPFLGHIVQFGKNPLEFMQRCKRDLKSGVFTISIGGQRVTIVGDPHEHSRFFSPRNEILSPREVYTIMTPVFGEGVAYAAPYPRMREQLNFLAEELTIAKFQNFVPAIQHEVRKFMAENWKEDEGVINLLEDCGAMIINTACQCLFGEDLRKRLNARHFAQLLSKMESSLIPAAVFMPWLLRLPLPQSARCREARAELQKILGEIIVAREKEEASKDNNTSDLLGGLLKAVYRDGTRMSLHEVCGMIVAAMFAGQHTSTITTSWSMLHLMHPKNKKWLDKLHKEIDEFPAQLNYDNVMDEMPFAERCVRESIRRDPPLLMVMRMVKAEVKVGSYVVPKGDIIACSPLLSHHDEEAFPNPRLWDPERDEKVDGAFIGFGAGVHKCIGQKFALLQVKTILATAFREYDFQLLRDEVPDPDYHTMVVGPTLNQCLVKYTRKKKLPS

Lanosterol 14-alpha-demethylase, sequence (Q385E8 whole entry): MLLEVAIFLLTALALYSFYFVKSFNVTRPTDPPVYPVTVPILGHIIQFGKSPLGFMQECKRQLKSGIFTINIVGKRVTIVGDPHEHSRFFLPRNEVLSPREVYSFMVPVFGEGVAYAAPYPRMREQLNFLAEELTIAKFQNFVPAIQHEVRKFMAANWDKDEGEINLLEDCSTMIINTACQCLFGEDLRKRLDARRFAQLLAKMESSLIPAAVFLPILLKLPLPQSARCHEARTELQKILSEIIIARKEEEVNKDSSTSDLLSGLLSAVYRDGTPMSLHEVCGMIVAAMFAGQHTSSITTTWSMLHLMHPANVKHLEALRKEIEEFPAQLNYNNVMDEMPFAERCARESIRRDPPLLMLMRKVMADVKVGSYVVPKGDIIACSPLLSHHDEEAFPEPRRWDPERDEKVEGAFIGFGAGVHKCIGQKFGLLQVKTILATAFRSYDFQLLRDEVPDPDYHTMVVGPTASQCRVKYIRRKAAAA

SMILES	Kd [1]	Kd [2] [nM]
CC(=O)N1CCN(c2ccc(OC[C@H]3CO[C@](Cn4ccnc4)(c4ccc(Cl)cc4Cl)O3)cc2)CC1 [24F2-1,25(OH)D3]	2300 nM	
O=C(NCC(c1ccc(Cl)cc1)(c1ccc(Cl)cc1)n1ccnc1)c1ccccc1 [Azole, 1]	1010 nM	320
O=C(NC(Cn1ccnc1)c1ccc(Cl)cc1Cl)c1nnc(-c2ccccc2)o1 (centres undefined) [Azole, 2]	90 nM and 100 nM	
O=C(NC(Cn1ccnc1)c1ccc(Cl)cc1Cl)c1nnc(-c2ccccc2)o1 (centres undefined) [Azole, 3]	140 nM	140
O=C(NC(Cn1ccnc1)c1ccccc1)c1ccc(-c2ccc(Cl)cc2)cc1 (centres undefined) [Azole, 4]	50 nM	70
O=C(NCC(c1ccccc1)n1ccnc1)c1cnc[nH]1 (centres undefined) [Azole, 5]	1900 nM	1200
O=C(NCC(c1ccccc1)n1ccnc1)c1cccc2c1oc1ccccc12 (centres undefined) [Azole, 6]	210 nM	130
O=C(NCC(c1ccccc1)n1ccnc1)c1ccc2sc3ccccc3c(=O)c2c1 (centres undefined) [Azole, 7]	310 nM	380
O=C(NCC(c1ccccc1)n1ccnc1)c1csc(-c2ccc(Cl)cc2)c1 (centres undefined) [Azole, 8]	210 nM	110
COc1cccc(Sc2ccc(C(=O)NCC(c3ccccc3)n3ccnc3)cc2)c1 (centres undefined) [Azole, 9]	70 nM	90
O=C(NCC(c1ccccc1)n1ccnc1)c1cccc(Sc2ccccc2)c1 (centres undefined) [Azole, 10]	50 nM	50
COc1ccc(CC(CNC(=O)c2ccc(-c3ccc(Cl)cc3)cc2)n2ccnc2)cc1 (centres undefined) [Azole, 11]	710 nM	110
O=C(NCC(c1ccccc1)n1ccnc1)c1ccc(-c2ccc(Cl)cc2)cc1 (centres undefined) [Azole, 12]	40 nM	70
CCCCOc1ccc(-c2ccc(C(=O)NC(Cn3ccnc3)c3ccc(Cl)cn3)cc2)cc1 (centres undefined) [Azole, 17]	80 nM	110
O=C(NC(Cn1ccnc1)c1ccc(Cl)cn1)c1ccc(-c2ccc(Cl)cc2)cc1 (centres undefined) [Azole, 19]	90 nM	60
O=C(NC(Cn1ccnc1)c1ccc(Cl)cn1)c1ccc(-c2ccc(Cl)cc2)cc1 (centres undefined) [Azole, 20]		70
